Test results: patent EP1272183B1, “METHODS AND COMPOSITIONS USEFUL IN ENHANCING OXYGEN DELIVERY TO CELLS” (Niadyne Corporation, priority 2000, dated 2001)

Assays:
skin of human volunteers = assay: Visual observation of vasodilation (blushing) after topical application of niacin ester lotions to the forearm; format: in vivo; conditions: for Vasodilation at 0.1% / Vasodilation Effect at 0.1% Duration / Vasodilation Effect at 0.1% Onset: 0.1% in skin lotion; for Vasodilation at 0.1% / Vasodilation at 1.0%: anterior surface of forearm, visual observation of blushing; for Vasodilation at 1.0%: 1.0% in skin lotion; for Vasodilation Effect at 0.1% Duration / Vasodilation Effect at 0.1% Onset: visual determination
Description: This example details the first of two sets of experiments designed to determine the vasodilation effect of alkyl niacin esters. Formulations were prepared by combining the alkyl esters referred to supra in a skin lotion, at 0.1% and 1.0% concentrations. The lotions were applied topically to the skin of human volunteers on the anterior surface of a forearm. Vasodilation was observed visually, i.e., by observing blushing at the site of application, or lack thereof. Both onset and duration of vasodilation were measured.
Table 1: Properties of Niacin Esters

[1] = Determination of log P (Poct/w) values in accordance with Harnisch, et al.; format: physicochemical; conditions: experimentally determined, following Harnisch
Description: The Poct/w values for these compounds were determined in accordance with Harnisch, et al., J. Chromatog.

skin = assay: Skin oxygen and CO2 content measured with a transcutaneous monitor after topical application; format: in vivo, human
Description: To examine this issue, the oxygen content of skin to which the octyl ester discussed supra was determined directly, using a transcutaneous oxygen monitor. The 1% formulation of the octyl ester was applied to skin for 30 minutes. After this thirty minute period, the skin was cleaned with soap and water, wiped with an alcohol swab, and a drop of deionized water was placed on the sensor surface before its attachment to the anterior surface of the volunteers' forearms. The transcutaneous values were recorded constantly, and stored by the instrument. The monitor measures relative oxygen content, because the temperature at which the monitor operates does impact the oxygen permeability of the stratum corneum. See, e.g., Martin, Resp. […] The sensor was calibrated at 4 hour intervals, or whenever the sensor temperature was changed.
The monitor was operated at a temperature of 40°C. Values are given for both a control, and the formulation described herein.
In a follow-up experiment, the monitor was op erated at 38°C, and both O2 and CO2 were measured, with a combined transcutaneous oxygen and CO2 monitor. […] The control is represented by the dotted line.
Parallel experiments were carried out using 0.1% octyl niacin ester lotion, and a lotion containing octyl niacin ester (0.1 %), and 0.1 % butyl benzoate.
Oxygen content was measured in the same way as is described, supra, or using other techniques known to the art.

[2] = monitor at 38°C, versus control, Figure 3

| Compound | Vasodilation at 0.1% (skin of human volunteers) | Vasodilation at 1.0% (skin of human volunteers) | logP [1] | further results |
| --- | --- | --- | --- | --- |
| COC(=O)c1cccnc1 [1 carbon] | Yes | Yes | – | – |
| CCOC(=O)c1cccnc1 [2 carbons, Ethyl niacin] | Yes | Yes | – | Vasodilation Effect at 0.1% Duration (skin of human volunteers): 30 to 45 min; Vasodilation Effect at 0.1% Onset (skin of human volunteers): 5 to 10 min |
| CCCCOC(=O)c1cccnc1 [4 carbons] | Yes | Yes | 2.4 | – |
| CCCCCCOC(=O)c1cccnc1 [6 carbons, Hexyl niacin] | Yes | Yes | 3.5 | Vasodilation Effect at 0.1% Duration (skin of human volunteers): 60 to 90 min; Vasodilation Effect at 0.1% Onset (skin of human volunteers): 10 to 15 min |
| CCCCCCCCOC(=O)c1cccnc1 [8 carbons, Octyl niacin] | Yes | Yes | – | Vasodilation Effect at 0.1% Duration (skin of human volunteers): 240 to 360 min; Vasodilation Effect at 0.1% Onset (skin of human volunteers): 10 to 20 min; Vasodilation Effect at 0.1% Duration (skin of human volunteers; listed as C8): longest effect; skin oxygen (transcutaneous oxygen monitor) (skin; 1% formulation applied to skin for 30 minutes, monitor at 40°C, versus control, Figure 2): sustained increase in skin oxygen; CO2 content (combined transcutaneous oxygen and CO2 monitor) (skin; [2]): decrease in CO2 content; skin oxygen content (combined transcutaneous oxygen and CO2 monitor) (skin; [2]): sustained increase in skin oxygen content |
| CCCCCCCCCOC(=O)c1cccnc1 [9 carbons] | No | Yes | – | Vasodilation at 1.0% (skin of human volunteers; listed as C9): caused vasodilation |
| CCCCCCCCCCOC(=O)c1cccnc1 [10 carbons] | No | Yes | 5.8 | Vasodilation at 1.0% (skin of human volunteers; listed as C10): caused vasodilation |
| CCCCCCCCCCCOC(=O)c1cccnc1 [11 carbons] | No | Slight | – | – |
| CCCCCCCCCCCCOC(=O)c1cccnc1 [12 carbons] | No | No | – | logP ([1]; octanol/water): 6.6 |
| CCCCCCCCCCCCCOC(=O)c1cccnc1 [13 carbons] | No | No | 7.5 | – |
| CCCCCCCCCCCCCCOC(=O)c1cccnc1 [14 carbons] | No | No | – | logP ([1]; octanol/water): 7.6 |
| CCCCCCCCCCCCCCCOC(=O)c1cccnc1 [15 carbons] | No | No | 8.3 | – |
| CCCCCCCCCCCCCCCCOC(=O)c1cccnc1 [16 carbons] | No | No | 9.2 | – |
| CCCCCCCCCCCCCCCCCCOC(=O)c1cccnc1 [18 carbons] | No | No | 9.7 | – |
| CCCCOC(=O)c1ccccc1 [Butyl benzoate, reference compound] | – | – | – | chromatographic logP ([1]; octanol/water): 3.5; effect on the increase in oxygen content caused by octyl niacin ester (skin; lotion containing octyl niacin ester (0.1 %) and 0.1 % butyl benzoate versus 0.1% octyl niacin ester lotion, Figure 4): blocked the increase in oxygen content |
